Measurements published in paper PMC10967203, “Rolapitant treats lung cancer by targeting deubiquitinase OTUD3” (Cell Communication and Signaling : CCS, 2024).

Target: T1, OTUD3 (Homo sapiens, UniProt Q5T2D3)
T1 sequence (Q5T2D3 1-398): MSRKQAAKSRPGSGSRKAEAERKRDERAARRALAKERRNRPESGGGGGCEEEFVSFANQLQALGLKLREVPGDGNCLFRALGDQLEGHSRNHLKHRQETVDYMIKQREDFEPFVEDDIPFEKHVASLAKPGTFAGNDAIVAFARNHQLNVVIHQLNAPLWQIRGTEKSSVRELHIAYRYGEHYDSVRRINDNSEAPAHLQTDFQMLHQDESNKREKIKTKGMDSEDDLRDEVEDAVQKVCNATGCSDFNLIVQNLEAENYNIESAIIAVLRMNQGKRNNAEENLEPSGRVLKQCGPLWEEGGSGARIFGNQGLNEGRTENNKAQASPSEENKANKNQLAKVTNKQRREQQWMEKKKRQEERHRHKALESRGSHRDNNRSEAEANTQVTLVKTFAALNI
Experiment: microscale thermophoresis (MST) with labeled OTUD3; supported by in vitro K48 di-ubiquitin cleavage assay with purified OTUD3 OTU (aa […]) at […] Rolapitant
Assay type: binding

`C[C@@H](OC[C@@]1(c2ccccc2)CC[C@]2(CCC(=O)N2)CN1)c1cc(C(F)(F)F)cc(C(F)(F)F)c1` [Rolapitant] was tested, and the “microscale thermophoresis (MST) with labeled OTUD3; supported by in vitro K48 di” value was “MST (microscale thermophoresis) assays shown that OTUD3 could directly bind to Rolapitant in vitro”.
